Here are results for two compounds from BindingDB's records for doi:10.1021/acs.jmedchem.5b01801 (University of Liverpool, 2016).

Usually Ki stands for the dissociation constant of the complex between target and ligand, obtained from inhibition or displacement. Lower therefore signals a stronger hold on the target.

A short description of this assay: Inhibition of Cyclophilin D (unknown origin) activity preincubated for 15 mins followed Suc-AAPF-pNA substrate addition by chymotrypsin coupled based spectrophotometry assay.

`Nc1ccc(CNC(=O)NCC(=O)N2CCCC2)cc1` had a Ki of 4.9 µM.

On to `CCOC(=O)CNC(=O)NCc1ccc(NC(C)=O)cc1`, for which the affinity, expressed as Ki, was 2.6 µM.
